Experimental data taken from patent US8269008B2, “Oxazolopyridine and isoxazolopyridine derivatives for use in the treatment of HIF-mediated conditions” (FibroGen, Inc., priority 2007, dated 2012).

molecular target: T1, HIF-PH2 (EGLN1) (Homo sapiens, UniProt Q9GZT9); test: HIF-PH assay (14CO2 capture, peptide-dependent turnover); assay type: biochemical; conditions: Concentration 22.22 μM
T1 construct: made in house; host or cells: insect Hi5 cells
Description: Ketoglutaric acid α-[1-^14C]-sodium salt, alpha-ketoglutaric acid sodium salt, and HPLC purified peptide may be obtained from commercial sources, e.g., Perkin-Elmer (Wellesley Mass.), Sigma-Aldrich, and SynPep Corp. (Dublin Calif.), respectively. Peptides for use in the assay may be fragments of HIFα as described above or as disclosed in International Publication WO 2005/118836, incorporated by reference herein. For example, a HLF peptide for use in the HIF-PH assay is [methoxycoumarin]-DLDLEALAPYIPADDDFQL-amide. HIF-PH, e.g., HIF-PH2 (EGLN1), can be expressed in, e.g., insect Hi5 cells, and partially purified, e.g., through a SP ion exchange chromatography column. Enzyme activity is determined by capturing ^14CO2 using an assay described by Kivirikko and Myllyla (1982, Methods Enzymol. 82:245-304). Assay reactions contain 50 mM HEPES (pH 7.4), 100 μM α-ketoglutaric acid sodium salt, 0.30 μCi/mL ketoglutaric acid α-[1-^14C]-sodium salt, 40 μM FeSO4, 1 mM ascorbate, 1541.8 units/mL Catalase, with or without 50 μM peptide substrate and various concentrations of compound of the invention. Reactions are initiated by addition of HIF-PH enzyme.
The peptide-dependent percent turnover is calculated by subtracting percent turnover in the absence of peptide from percent turnover in the presence of substrate peptide. Percent inhibition and IC50 are calculated using peptide-dependent percent turnover at given inhibitor concentrations. Calculation of IC50 values for each inhibitor is conducted using GraFit software (Erithacus Software Ltd., Surrey UK). […]

T1 sequence (Q9GZT9 whole entry, species assumed): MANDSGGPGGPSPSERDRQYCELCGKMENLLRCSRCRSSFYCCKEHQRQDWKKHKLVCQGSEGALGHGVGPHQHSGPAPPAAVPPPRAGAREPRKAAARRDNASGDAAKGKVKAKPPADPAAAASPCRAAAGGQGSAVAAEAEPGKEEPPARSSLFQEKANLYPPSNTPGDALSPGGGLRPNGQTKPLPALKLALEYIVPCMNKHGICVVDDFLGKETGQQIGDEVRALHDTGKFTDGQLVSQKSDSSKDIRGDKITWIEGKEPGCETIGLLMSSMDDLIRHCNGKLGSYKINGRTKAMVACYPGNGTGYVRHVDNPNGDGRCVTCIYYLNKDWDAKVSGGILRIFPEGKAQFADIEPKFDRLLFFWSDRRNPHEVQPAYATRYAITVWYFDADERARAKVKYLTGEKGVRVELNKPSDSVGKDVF

inhibition at 22.22 µM	SMILES
97.5%	Cc1noc2c(-c3ccccc3)nc(C(=O)NCC(=O)O)c(O)c12 [Example 71, [(4-Hydroxy-3-methyl-7-phenyl-isoxazolo[5,4-c]pyridine-5-carbonyl)-amino]-acetic acid]
94.6%	Cc1nc(C(=O)NCC(=O)O)c(O)c2c(C)noc12 [Example 72, [(4-Hydroxy-3,7-dimethyl-isoxazolo[5,4-c]pyridine-5-carbonyl)-amino]-acetic acid]
97.4%	Cc1nc(C(=O)NCC(=O)O)c(O)c2c(-c3ccc(OC(F)(F)F)cc3)noc12 [Example 73, {[4-Hydroxy-7-methyl-3-(4-trifluoromethoxy-phenyl)-isoxazolo[5,4-c]pyridine-5-carbonyl]-amino}-acetic acid]
94.4%	COc1ccc(-c2noc3c(C)nc(C(=O)NCC(=O)O)c(O)c23)cc1 [Example 74, {[4-Hydroxy-3-(4-methoxy-phenyl)-7-methyl-isoxazolo[5,4-c]pyridine-5-carbonyl]-amino}-acetic acid]
98%	O=C(O)CNC(=O)c1ncc2onc(-c3ccc(Cl)cc3Cl)c2c1O [Example 75, {[3-(2,4-Dichloro-phenyl)-4-hydroxy-isoxazolo[5,4-c]pyridine-5-carbonyl]-amino}-acetic acid]
99.4%	CS(=O)(=O)c1ccc(-c2noc3cnc(C(=O)NCC(=O)O)c(O)c23)cc1 [Example 76, {[4-Hydroxy-3-(4-methanesulfonyl-phenyl)-isoxazolo[5,4-c]pyridine-5-carbonyl]-amino}-acetic acid]
